We go through 15 molecules from patent publication US10280217B2, “Cell culture additives and their use for increased bioprotein production from cells” (priority 2017, dated 2019).

The test system of data set [1] is CHO-HBS cells. Description: Batch CHO cell process in 3 L bioreactors with gaseous or dissolved candidate Additives (VCD, antibody titer, qP). In kind it is cell-based, Chinese hamster. Conditions: vs control; for impact on protein biomolecule production or cell growth: gas sparged into 3 L batch cultures; for antibody titer / calculated specific cellular productivity (qP) / viable cell density (VCD) / cell growth: 3 L batch cultures. As to the method: The following candidate gaseous and chemical additives were screened using a batch CHO cell process in a 3 L (2 L working volume) bioreactors. CHO-HBS cells were cultured in CDM4MAb media (HyClone Labaratories; Logan Utah; custom part containing base media cat# SH30801.02 supplemented with an additional 0.5 g/L poloxamer 188) in vented, plain-bottom Erlenmeyer flasks at 3-30×10^5 cells/mL. The cells were cultured for 14-16 days and then inoculated into 3 L semi-batch bioreactors at 3-4×10^5 cells/mL with 2 L working volumes. The bioreactor system monitored and controlled temperature, pH, % CO2, %02, sparge rate, and aeration rate. The bioreactors maintained a sparge rate of 0.1 vvm, 40% DO, and a pH value of 7.10. The pH was controlled by addition of CO2 or 1 N sodium bicarbonate solution. Additionally, 1 M glucose was added and adjusted daily to allow for a glucose consumption rate of 3 g/L/day. Each bioreactor was sampled daily (3-4 mL removed/day) for analysis. Gaseous additives were injected into the bioreactors using the following methods: • Inert Gas Injection (xenon): The bioreactor system controlled the flowrate and composition of oxygen, carbon dioxide, air, and nitrogen that was sparged into each bioreactor. The mixture composition was determined by the dissolved oxygen and pH levels in each reactor. House gas lines for these four gases were filtered and fed into the bioreactor mass flow control system. The effects of xenon were tested by replacing the nitrogen house gas feed with a cylinder containing xenon and replacing the air gas feed with a cylinder containing 21% oxygen and 79% xenon respectively. The system was calibrated for controlling the flowrate of the replacement gas by measuring the bioreactor mass flow controller flowrate for each gas at 12slph using a film flowmeter, then adjusting the gas correction factor for the bioreactor nitrogen or air mass flow controller until the flowrate on the film flowmeter and bioreactor system were the same. […] This allowed the CHO cells to be cultured with the maximum quantity of inert gas. • Reactive Gas Injection (nitric oxide, carbon monoxide, or hydrogen): The bioreactor module controlled the composition and flow of oxygen, air, nitrogen, and carbon dioxide gases as described previously. Reactive gases including nitric oxide, carbon monoxide, or hydrogen were introduced into the gas stream through a tee line connection before the gas mixture entered the bioreactors. The reactive gas flowrate was controlled using a mass flow controller and the flowrate of the bioreactor controlled mixture was adjusted to maintain the total gas flowrate into each reactor at 12slph.

A further data set deals with Heme Oxygenase 1 (HO-1). Description: HO-1 expression in 3 L cultures (RNA-seq, Western blot). The data set is classed as cell-based, Chinese hamster. The conditions noted are these: 3 L cultures exposed to the gas, vs control. The procedure:
(§1) Gene expression profiles were captured using RNA-seq. Conesa A, Madrigal P, Tarazona S, et al. A survey of best practices for RNA-seq data analysis. Genome Biology. 2016; 17:13. doi:10.1186/s13059-016-0881-8. RNA was extracted with a RNeasy Plus Mini kit (Qiagen) and quantified by absorbance at 260 nm with a NanoDrop 2000 (Thermo Fisher Scientific). The RNA quality was assessed using a RNA 6000 Nano Kit (Agilent) and a Bioanalyzer (Agilent). RNA was fragmented and libraries were prepared using commercial kits (TruSeq RNA Library Prep Kit v2, Illumina). RNA was sequenced on a HiSeq 2500 (Illumina) at the DNA Sequencing & Genotyping Center of the University of Delaware. Data were analyzed at the Bioinformatics Core Facility, Center for Bioinformatics and Computational Biology of the University of Delaware. As the specific genome sequence of the CHO DG44 line was not available, a Chinese Hamster genome draft was used as a reference. Genes with differential expression (false discovery rate <0.001) were further analyzed with DAVID 6.8 (https://david.ncifcrf.gov/), STRING 10.0 (http://string-db.org/) and iProXpress (http://pir.georgetown.edu/iproxpress2/).
Exemplary transcript profiles of cells on days 1, 3 and 5 of 3 L cell cultures were generated between control and gaseous NO treated cultures to perform differential gene expression analysis (FIG. 16). […]

The conditions of data set [2]: cited from earlier work.
For another data set, the system named is HO-1. In words: HO-1 expression in shake flask cultures. Conditions: shake flasks, vs control. The data set is classed as cell-based, Chinese hamster. As to the method: (§2) Cells were grown in CDM4MAb medium supplemented with poloxamer-188. Flasks were incubated on a shaker at 125 rpm in a humidified incubator at 37° C. and 5% CO2. DETA-NO was dissolved in 0.01 M sodium hydroxide solution at a 0.2 M concentration. Aliquots of DETA-NO solution were added daily to cell cultures to reach a final concentration of 0.09, 0.18 or 0.36 mM DETA-NO. Sodium hydroxide solution (0.01M) was added daily as a negative control. 0.01-1.0 mM DETA-NO release NO at a rate in the low nM/sec range (Bouton, C. and Demple, B., 2000. Nitric oxide-inducible expression of heme oxygenase-1 in human cells translation-independent stabilization of the mRNA and evidence for direct action of nitric oxide. Journal of Biological Chemistry, 275(42), pp. 32688-32693).
(§3) The effects of gaseous NO were partially recapitulated by adding NO-releasing compound DETA-NO daily to cell cultures in shake flasks. Cell growth and viability followed similar trends with addition of DETA-NO as with gaseous NO.

The subject of data set [3] is CHO-HBS cells. Description: DETA-NO added daily to shake flask cultures (cell growth, viability). In kind it is cell-based, Chinese hamster. The conditions noted are these: shake flasks. The procedure: as §2, §3
Data set [4] can be described thus: Antibody assembly by SDS-PAGE (non-reducing / reducing). The data set is classed as physicochemical. The conditions noted are these: NO-sparged vs control. From the text: In the absence of reducing agents, the pool of IgGs consists of three structures: fully assembled IgGs, IgGs missing one light chain, and IgGs missing two light chains. Variations in the proportion of the three structures depend on the production process and intrinsic properties of the IgG molecules. […] In the presence of reducing agents, the three structures collapsed into two forms of approximately 52 and 26 kDa, corresponding to the heavy and light chains, respectively. No major differences were detected between antibodies produced in NO-sparged reactors compared to controls. Byproducts with an apparent molecular mass of 25 kDa were detected on day 10. These species, which might be degradation products of light chains, seemed to be an intrinsic feature of HBS antibodies independent from the NO-based process.

Data set [5] in a line: Glycosylation analysis (released glycans, HILIC). The data set is classed as physicochemical. Conditions: CHO-HBS cells treated with 300 ppm NO vs control. From the text:
Glycans were enzymatically released from purified IgGs, labeled with a fluorescent dye, and separated by hydrophilic interaction liquid chromatography (GlycoWorks RapiFluor-MS N-Glycan Kit, Waters). Glycans of IgGs purified from CHO-HBS cells were consistent with the typical patterns reported in the literature for proteins expressed in CHO cells. A heterogeneous population of glycans with high proportion of GOF structure followed by G1F and G2F was observed (FIG. 26).

For data set [6], the system named is glutathione-related enzymes (S-transferase proteins, catalases, oxidation resistance genes). Description: Expression of glutathione-related enzymes in 3 L cultures (RNA-seq, Western blot). Conditions: gaseous NO vs control. The data set is classed as cell-based, Chinese hamster. As to the method:
as §1
NO can oxidize intracellular molecules and thereby change the antioxidant levels within the cell, resulting in oxidative stress that potentially leads to membrane dysfunction, DNA damage and inactivation of proteins. […]
For orientation: Immunoblotting shows a protein as a band on a membrane.

The target in the next data set is T1, Caspase-3 (Cricetulus griseus, UniProt Q6JH80).
T1 construct: endogenous in cells; host or cells: CHO-HBS cells (CHO DG44 derived), 3 L bioreactor cultures
T1 sequence (Q6JH80 29-175 limits assumed): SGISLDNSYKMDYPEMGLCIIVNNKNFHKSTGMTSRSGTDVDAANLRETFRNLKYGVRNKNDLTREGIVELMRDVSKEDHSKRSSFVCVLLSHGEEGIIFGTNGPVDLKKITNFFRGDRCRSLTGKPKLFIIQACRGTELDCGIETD
T1 sequence (Q6JH80 176-277 limits assumed): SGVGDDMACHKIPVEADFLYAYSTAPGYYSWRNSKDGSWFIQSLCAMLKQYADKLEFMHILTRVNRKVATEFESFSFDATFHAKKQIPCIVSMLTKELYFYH
Description: Caspase-3 activity (EnzCheck Caspase-3 Assay Kit #1) in 3 L cultures. The data set is classed as cell-based, Chinese hamster. Conditions: 3 L cultures ± NO 300 ppm, same number of viable cells. The source says: The NO-specific extension of viability correlates with a decrease in Caspase-3 activity (FIG. 20). Capase-3 activity was monitored with an EnzCheck Caspase-3 Assay Kit #1 (Thermo Fisher Scientific) using samples containing the same number of viable cells. All caspase proteases contain a single cystein at the enzyme catalytic site that is essential for activity. […] Thus, the observed lower caspase-3 activity may be due to a specific blockage of the catalytic cysteine residue through formation of nitrosylthiols.

Like-named read-outs stand apart in the source and are kept apart here.

With `[Ar]` [Argon], the “impact on protein biomolecule production or cell growth” value (shortened to “impact”) in the data set on CHO-HBS cells [1] is “did not significantly affect”.
Consider `[C-]#[O+]` [Carbon Monoxide], for which, in the data set on CHO-HBS cells [1], the antibody titer result is “less impacted”; the “calculated specific cellular productivity (qP)” value is “higher than control”; the “viable cell density (VCD) / cell growth” value was “suppressed during the growth phase, but shows higher VCD at the end of the culturing period”. In addition, in the data set with CHO-HBS cells [1] (net effect of VCD to qP), the “overall yield from batch culture” value was “overall smaller yield”. The “expression of HO-1 (oxidative stress response)” value with Heme Oxygenase 1 (HO-1) is “did not lead to an increase”.
Regarding `CCN(CC)/[N+]([O-])=N/O.CCNCC` [DEA-NO], the half-life in [2] (buffer, pH 7.4) was 2 min.
With `NCCN(CCN)/[N+]([O-])=N/O` [DETA-NO, diethylenetriamine-nitric oxide adduct], the half-life in [2] (37° C., pH 7.4) is 1200 min. The “HO-1 expression (oxidative stress response)” value in the data set on HO-1 is recorded as “HO-1 up regulation”. Moreover, the viable cell counts result in the data set with CHO-HBS cells [3] (daily addition, relative to control cultures) was “lower at the stationary phase but increased in the late phase of the culture”. In addition, in the data set with CHO-HBS cells [3] (higher concentrations tested), the cell death entry is “increased cell death”.
For `[HH]` [Hydrogen], the “impact” value in the data set on CHO-HBS cells [1] is “do not have a significant impact”.
On to `[Kr]` [Krypton], for which the “impact” value in the data set with CHO-HBS cells [1] is “did not significantly affect”.
Turning to `CNCCCCCCN(C)/[N+]([O-])=N/O` [MAHMA NONOate], the half-life in data set [2] (37° C., pH 7.4) is 1 min.
For the molecule `CC(C)N(CCCN)/[N+]([O-])=N/O` [NOC-5], in [2] (PBS (pH 7.4), 22° C.), the half-life was 93 min.
As to `O=[N+]([O-])[O-].[Na+]` [Nitrate, Sodium Nitrate], in the data set with CHO-HBS cells [1], the antibody titer result is “no effect” and the “viable cell density (VCD) / cell growth” value is reported as “no effect”.
Take `[N]=O` [Nitric Oxide]: the “overall IgG structure” value in [4] was “did not seem to impact”. In addition, the “fucosylated glycans of IgGs” value in data set [5] is “minor reduction”. Besides, in the data set with CHO-HBS cells [1], the “calculated specific cellular productivity (qP)” value was “boosted qP” and the “viable cell density (VCD) / cell growth” value is given as “shifted the cell culture VCD profile”. The “expression of HO-1 (oxidative stress response)” value with Heme Oxygenase 1 (HO-1) is “induces expression”. In [6], the “expression of glutathione-related enzymes” value was “stimulates expression”. For the same molecule, at Caspase-3, the Caspase-3 activity entry is “decrease”.
`O=NO` [Nitrite, Sodium Nitrite]: in the data set on CHO-HBS cells [1], the antibody titer entry is “no significant impact” and the “viable cell density (VCD) / cell growth” value was “at most a small effect on VCD in the late phase of culture”. For the same molecule, the “HO-1 expression (oxidative stress response)” value with HO-1 is “does not activate”.
With `[O]N=O` [Nitrogen Dioxide], in the data set with CHO-HBS cells [1], the antibody titer entry was “strongly negative effect” and the “viable cell density (VCD) / cell growth” value is on record as “strongly negative effect”.
Take `CCCN(CCCN)/[N+]([O-])=N/O` [PAPA NONOate]: the half-life in [2] (37° C., pH 7.4) was 15 min.
Take `[Xe]` [Xenon]: the “impact” value in the data set with CHO-HBS cells [1] is recorded as “do not have a significant impact”.
`[O-]/[N+](=N\O[C@@H]1O[C@H](CO)[C@H](O)[C@H](O)[C@H]1O)N1CCCC1` [β-Gal-NO]: the half-life result in data set [2] (pH 5.6, following activation by β-galactosidase) was “six”.

As usually defined, the half-life is the time needed for the level to fall by half in the phase considered.
